What was measured:
TNF-α = assay: In vitro cell experiment: LPS-stimulated TNF-α release in THP-1 cells (ELISA); type: cell-based; conditions: Homo sapiens; TNF-α in supernatant of THP-1 cells, compound 2 h then LPS 10 μg/ml 2 h
Source text: I. In Vitro Cell Experiment
Cells: human monocytic leukemia THP-1 cells (obtained from the Shanghai Cell Bank of Chinese Academy of Sciences).
Lipopolysaccharides: from Escherichia coli O55: B5, L2880 (Sigma).
Kit: Human TNF-α Elisa MAX Deluxe Set, 430206 (Biolegend)

[1] = Pharmacokinetics experiment, oral administration to SD rats; type: in vivo; conditions: Sprague-Dawley (SD), rat, plasma
Experimental: IV. Pharmacokinetics Experiment
Experimental Method: SD rats were orally administrated the compounds and the blood samples were taken from the eye orbit of the rat sat different time intervals after administration (0.25, 0.5, 1, 2, 4, 6, 8, 24, 48 h). The collected whole blood was anticoagulant by EDTA (Ethylene Diamine Tetraacetic Acid Sodium) and 3000 g of samples were centrifugated to obtain the rats' plasma samples, methanol or ethanol was used to precipitate proteins, the drug concentration of the rats' plasma samples was determined, the drug concentration-time curve was plotted to calculate the pharmacokinetic parameters. The pharmacokinetic behavior in rats after administration was described by non-compartmental models statistical moment parameter.
The pharmacokinetic experiments were carried out for the compounds.

CYP450, 2C9 enzymes = CYP450, 2C9 enzymes (Homo sapiens (Human), UniProt P11712); assay: CYP450 enzyme inhibition test in human liver microsome; type: in vitro ADME; conditions: CYP450 2C9, LC-MS/MS
Sequence of CYP450, 2C9 enzymes (P11712 whole entry): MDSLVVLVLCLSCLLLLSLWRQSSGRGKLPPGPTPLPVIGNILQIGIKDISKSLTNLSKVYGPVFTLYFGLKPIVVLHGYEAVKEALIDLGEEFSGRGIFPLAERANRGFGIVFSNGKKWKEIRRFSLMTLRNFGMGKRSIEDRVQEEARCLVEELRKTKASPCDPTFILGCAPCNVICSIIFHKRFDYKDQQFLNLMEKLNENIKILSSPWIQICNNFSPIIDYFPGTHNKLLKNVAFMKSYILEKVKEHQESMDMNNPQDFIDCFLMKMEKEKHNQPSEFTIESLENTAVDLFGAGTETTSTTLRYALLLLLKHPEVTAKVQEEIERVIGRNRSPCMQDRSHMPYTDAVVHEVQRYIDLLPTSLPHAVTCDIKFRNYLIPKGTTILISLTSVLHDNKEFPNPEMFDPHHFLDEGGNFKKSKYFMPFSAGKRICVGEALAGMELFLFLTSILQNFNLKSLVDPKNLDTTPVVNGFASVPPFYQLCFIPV

p38a = p38a (Homo sapiens (Human), UniProt Q16539); assay: Assay of p38 kinase activity (fluorescence, peptide substrate); type: biochemical; conditions: 40 nM p38a, 100 μM ATP, 90 minutes
Sequence of p38a (Q16539 whole entry): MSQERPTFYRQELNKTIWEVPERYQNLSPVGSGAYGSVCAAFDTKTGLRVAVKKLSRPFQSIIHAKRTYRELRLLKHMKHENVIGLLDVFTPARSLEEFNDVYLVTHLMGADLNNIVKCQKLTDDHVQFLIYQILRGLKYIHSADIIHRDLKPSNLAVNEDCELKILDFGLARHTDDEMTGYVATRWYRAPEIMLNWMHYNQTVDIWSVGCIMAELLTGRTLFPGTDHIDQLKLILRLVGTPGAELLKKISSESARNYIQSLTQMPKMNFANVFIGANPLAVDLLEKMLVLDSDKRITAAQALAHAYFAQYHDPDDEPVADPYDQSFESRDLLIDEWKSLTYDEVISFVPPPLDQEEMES
Experimental: II. Assay of p38 Kinase Activity
Experimental Method: 40 nM p38a was added into a reaction buffer, which include 20 mM HEPES (4-hydroxyethylpiperazine ethanesulfonic acid), 5 mM MgCl2 and 1 mM DTT (dithiothreitol) at pH 7.4. 40 μM phosphorylated peptide substrate was added, followed by different concentrations of drugs and 100 μM ATP (adenosine triphosphate), and reacted for 90 minutes in dark. […] The IC50 values of the compounds were obtained according to the fluorescence values.

Structure (SMILES) | IC50 (TNF-α) [nM] | AUC(0-t) [1] [ng·h/mL] | IC50 (CYP450, 2C9 enzymes) [nM] | IC50 (p38a) [nM]
Cc1c(F)cc(C(=O)NC2CC2)cc1-c1ccc(C(=O)NCC(C)(C)C)cn1 [Comparative example, 6-(5-(cyclopropylcarbamoyl)-3-fluoro-2-methylphenyl)-N-neopentylnicotinamide, reference compound] | 10 to 20 | 9630 |  | 
Cc1c(F)cc(C(=O)NC2CC2)cc1-c1ccc(C(=O)N(C)CC(C)C)nn1 [Example 3] | 5 to 10 |  | > 50000 | < 5
Cc1c(F)cc(C(=O)NC2CC2)cc1-c1ccc(C(=O)NC2CCCC2)nn1 [Example 4] | < 5 |  | > 50000 | < 5
Cc1c(F)cc(C(=O)NC2CC2)cc1-c1ccc(C(=O)NC2CCCCC2)nn1 [Example 5, N-cyclohexyl-6-(5-(cyclopropylcarbamoyl)-3-fluoro-2-methylphenyl) pyridazin-3-carboxamide] | < 5 |  | > 50000 | < 5
CCC(C)NC(=O)c1ccc(-c2cc(C(=O)NC3CC3)cc(F)c2C)nn1 (stereo not shown) [Example 58, 6-(5-(cyclopropylcarbamoyl)-3-fluoro-2-methylphenyl)-N-(sec-butyl)pyridazin-3-carboxamide] | < 5 |  | > 50000 | < 5
Cc1c(F)cc(C(=O)NC2CC2)cc1-c1ccc(C(=O)NCC(C)(C)C)nn1 [Example 59, 6-(5-(cyclopropylcarbamoyl)-3-fluoro-2-methylphenyl)-N-neopentylpyridazin-3-carboxamide] | < 5 | 11300 | > 50000 | < 5
Cc1c(F)cc(C(=O)NC2CC2)cc1-c1ccc(C(=O)NCC2CC2)nn1 [Example 61, 6-(5-(cyclopropylcarbamoyl)-3-fluoro-2-methylphenyl)-N-(cyclopropylmethyl) pyridazin-3-carboxamide] | < 5 | 12200 | > 50000 | < 5

Second part, the compound after the results:

IC50 (TNF-α) [nM] | AUC(0-t) [1] [ng·h/mL] | IC50 (CYP450, 2C9 enzymes) [nM] | IC50 (p38a) [nM] | Structure (SMILES)
< 5 |  | > 50000 | < 5 | Cc1c(F)cc(C(=O)NC2CC2)cc1-c1ccc(C(=O)N(C)CC(C)C)nc1 [Example 16, 5-(5-(cyclopropylcarbamoyl)-3-fluoro-2-methylphenyl)-N-isobutyl-N-methylpyridin-2-formamide]
5 to 10 |  | > 50000 |  | Cc1c(F)cc(C(=O)NC2CC2)cc1-c1ccc(C(=O)NCC(C)(C)C)c(N)c1 [Example 42, 3′-amino-N^3-cyclopropyl-5-fluoro-6-methyl-N^4′-neo pentyl-[1,1′-biphenyl]-3,4′ -dicarboxamide]
< 5 |  | > 50000 | 5 to 10 | Cc1cc(-c2cc(C(=O)NC3CC3)cc(F)c2C)ccc1C(=O)NCC(C)C [Example 44, N^3-cyclopropyl-5-fluoro-N^4′-isobutyl-3′,6-dimethyl-[1,1′-biphenyl]-3,4′-dicarboxamide]
< 5 | 22100 | > 50000 | < 5 | Cc1c(F)cc(C(=O)NC2CC2)cc1-c1ccc(C(=O)NCC(C)C)nn1 [Example 57, 6-(5-(cyclopropylcarbamoyl)-3-fluoro-2-methylphenyl)-N-isobutylpyridazin-3-carboxamide]
